Measured values reported in the NIST ThermoML archive (doi:10.1016/j.jct.2011.02.018).
Numbers after ± are expanded uncertainties.

Assay: xn = mol fraction of the nth substance listed
Conditions: 101 kPa, Liquid; for viscosity: Concentric cylinders viscometry; for mass density: Vibrating tube method

COC(C)(C)C [2-methoxy-2-methylpropane] + CCCO
Conditions	mass density, 293.15 K [kg/m3]	mass density, 298.15 K [kg/m3]	mass density, 303.15 K [kg/m3]	mass density, 308.15 K [kg/m3]	viscosity, 293.15 K [mPa·s]	viscosity, 298.15 K [mPa·s]	viscosity, 303.15 K [mPa·s]	viscosity, 308.15 K [mPa·s]
x1 = 0.0126	802.92 ± 0.24	798.92 ± 0.24	794.86 ± 0.24	790.76 ± 0.24	2.139 ± 0.088	1.886 ± 0.077	1.676 ± 0.069	1.494 ± 0.061
x1 = 0.0219	802.2 ± 0.24	798.21 ± 0.24	794.13 ± 0.24	790.02 ± 0.24	2.069 ± 0.085	1.832 ± 0.075	1.631 ± 0.067	1.456 ± 0.059
x1 = 0.0298	801.64 ± 0.24	797.61 ± 0.24	793.53 ± 0.24	789.4 ± 0.24	2.014 ± 0.082	1.79 ± 0.073	1.594 ± 0.065	1.424 ± 0.058
x1 = 0.0403	800.81 ± 0.24	796.7 ± 0.24	792.61 ± 0.24	788.45 ± 0.24	1.948 ± 0.08	1.735 ± 0.071	1.548 ± 0.063	1.386 ± 0.057
x1 = 0.05	800.12 ± 0.24	796.03 ± 0.24	791.93 ± 0.24	787.77 ± 0.24	1.885 ± 0.077	1.683 ± 0.069	1.502 ± 0.061	1.347 ± 0.055
x1 = 0.0599	799.4 ± 0.24	795.34 ± 0.24	791.21 ± 0.24	787.04 ± 0.24	1.835 ± 0.075	1.635 ± 0.067	1.462 ± 0.06	1.309 ± 0.053
x1 = 0.0699	798.72 ± 0.24	794.62 ± 0.24	790.47 ± 0.24	786.28 ± 0.24	1.78 ± 0.072	1.589 ± 0.065	1.429 ± 0.058	1.276 ± 0.052
x1 = 0.0798	798.25 ± 0.24	794.12 ± 0.24	789.92 ± 0.24	785.72 ± 0.24	1.736 ± 0.071	1.552 ± 0.063	1.391 ± 0.057	1.252 ± 0.051
x1 = 0.09	797.26 ± 0.24	793.05 ± 0.24	788.85 ± 0.24	784.63 ± 0.24	1.67 ± 0.068	1.492 ± 0.061	1.338 ± 0.055	1.203 ± 0.049
x1 = 0.1003	796.41 ± 0.24	792.28 ± 0.24	788.08 ± 0.24	783.85 ± 0.24	1.627 ± 0.066	1.459 ± 0.059	1.301 ± 0.053	1.181 ± 0.048
x1 = 0.1495	793.03 ± 0.24	788.85 ± 0.24	784.61 ± 0.24	780.3 ± 0.24	1.412 ± 0.058	1.275 ± 0.052	1.151 ± 0.047	1.042 ± 0.043
x1 = 0.1999	789.56 ± 0.24	785.28 ± 0.24	780.94 ± 0.24	776.55 ± 0.24	1.234 ± 0.05	1.119 ± 0.046	1.016 ± 0.042	0.9225 ± 0.038
x1 = 0.25	786.15 ± 0.24	781.8 ± 0.24	777.38 ± 0.24	772.92 ± 0.24	1.089 ± 0.044	0.9917 ± 0.041	0.9045 ± 0.037	0.8231 ± 0.034
x1 = 0.3003	782.74 ± 0.24	778.33 ± 0.24	773.84 ± 0.24	769.32 ± 0.24	0.9663 ± 0.04	0.8841 ± 0.036	0.809 ± 0.033	0.7398 ± 0.03
x1 = 0.35	779.47 ± 0.24	774.99 ± 0.24	770.45 ± 0.24	765.85 ± 0.24	0.8694 ± 0.036	0.7946 ± 0.032	0.7291 ± 0.03	0.6694 ± 0.028
x1 = 0.4015	776.15 ± 0.24	771.6 ± 0.24	766.99 ± 0.24	762.32 ± 0.24	0.7809 ± 0.032	0.721 ± 0.029	0.6608 ± 0.027	0.6082 ± 0.025
x1 = 0.4585	772.51 ± 0.24	767.88 ± 0.24	763.21 ± 0.24	758.45 ± 0.24	0.6993 ± 0.029	0.6452 ± 0.026	0.5966 ± 0.025	0.5495 ± 0.023
x1 = 0.5002	769.91 ± 0.24	765.22 ± 0.24	760.49 ± 0.24	755.68 ± 0.24	0.6508 ± 0.027	0.6047 ± 0.025	0.5568 ± 0.023	0.5119 ± 0.021
x1 = 0.5505	766.88 ± 0.24	762.1 ± 0.24	757.3 ± 0.24	752.42 ± 0.24	0.5953 ± 0.025	0.5528 ± 0.023	0.5121 ± 0.021	0.4715 ± 0.019
x1 = 0.5994	763.94 ± 0.24	759.14 ± 0.24	754.28 ± 0.24	749.34 ± 0.24	0.5508 ± 0.023	0.52 ± 0.022	0.4831 ± 0.02	0.4457 ± 0.018
x1 = 0.6475	761.06 ± 0.24	756.21 ± 0.24	751.27 ± 0.24	746.28 ± 0.24	0.5181 ± 0.021	0.4813 ± 0.02	0.4499 ± 0.019	0.4153 ± 0.017
x1 = 0.7026	757.85 ± 0.24	752.93 ± 0.24	747.92 ± 0.24	742.86 ± 0.24	0.4767 ± 0.02	0.4449 ± 0.018	0.4145 ± 0.017	0.3818 ± 0.016
x1 = 0.7536	754.92 ± 0.24	749.92 ± 0.24	744.86 ± 0.24	739.74 ± 0.24	0.4509 ± 0.019	0.4165 ± 0.017	0.3944 ± 0.017	0.3602 ± 0.015
x1 = 0.8033	752.01 ± 0.24	747.01 ± 0.24	741.89 ± 0.24	736.72 ± 0.24	0.4202 ± 0.017	0.3922 ± 0.016	0.3655 ± 0.015	0.3345 ± 0.014
x1 = 0.8471	749.51 ± 0.24	744.41 ± 0.24	739.24 ± 0.24	734.04 ± 0.24	0.4014 ± 0.017	0.375 ± 0.016	0.3506 ± 0.015	0.3255 ± 0.014
x1 = 0.9007	746.4 ± 0.24	741.27 ± 0.24	736.06 ± 0.24	730.79 ± 0.24	0.3802 ± 0.016	0.3537 ± 0.015	0.3303 ± 0.014	0.308 ± 0.013
x1 = 0.9107	745.77 ± 0.24	740.64 ± 0.24	735.41 ± 0.24	730.13 ± 0.24	0.3705 ± 0.016	0.3499 ± 0.015	0.3277 ± 0.014	0.302 ± 0.013
x1 = 0.9185	745.32 ± 0.24	740.18 ± 0.24	734.94 ± 0.24	729.65 ± 0.24	0.3679 ± 0.015	0.3536 ± 0.015	0.3317 ± 0.014	0.3014 ± 0.013
x1 = 0.9282	744.76 ± 0.24	739.61 ± 0.24	734.37 ± 0.24	729.07 ± 0.24	0.3645 ± 0.015	0.3411 ± 0.014	0.3205 ± 0.014	0.2934 ± 0.013
x1 = 0.94	744.07 ± 0.24	738.91 ± 0.24	733.65 ± 0.24	728.34 ± 0.24	0.3597 ± 0.015	0.3383 ± 0.014	0.3153 ± 0.013	0.295 ± 0.013
x1 = 0.9493	743.55 ± 0.24	738.35 ± 0.24	733.09 ± 0.24	727.78 ± 0.24	0.3573 ± 0.015	0.3241 ± 0.014	0.3106 ± 0.013	0.2879 ± 0.012
x1 = 0.9599	742.94 ± 0.24	737.74 ± 0.24	732.47 ± 0.24	727.15 ± 0.24	0.3554 ± 0.015	0.3246 ± 0.014	0.3102 ± 0.013	0.2939 ± 0.013
x1 = 0.9698	742.37 ± 0.24	737.19 ± 0.24	731.91 ± 0.24	726.58 ± 0.24	0.349 ± 0.015	0.329 ± 0.014	0.3092 ± 0.013	0.2843 ± 0.012
x1 = 0.9796	741.82 ± 0.24	736.64 ± 0.24	731.35 ± 0.24	726.01 ± 0.24	0.3454 ± 0.015	0.3252 ± 0.014	0.3054 ± 0.013	0.2803 ± 0.012
x1 = 0.9882	741.32 ± 0.24	736.14 ± 0.24	730.84 ± 0.24	725.49 ± 0.24	0.344 ± 0.015	0.3242 ± 0.014	0.3046 ± 0.013	0.2819 ± 0.012
